50 compounds from BindingDB's records for doi:10.7270/Q2PN941W (The Scripps Research Institute Molecular Screening Center, 2007) can be followed below.

Counter-ions that a name gives are not always drawn.

The test has as its target Sphingosine 1-phosphate receptor 3 (Homo sapiens, UniProt Q99500). Put plainly: nonspecific agonism in S1P3 NFAT-BLA cells – counter-screen for 5HT1E agonist project, dose response (AID 730). (Counterscreens check selectivity or assay interference.)

Sphingosine 1-phosphate receptor 3, sequence (Q99500 whole entry): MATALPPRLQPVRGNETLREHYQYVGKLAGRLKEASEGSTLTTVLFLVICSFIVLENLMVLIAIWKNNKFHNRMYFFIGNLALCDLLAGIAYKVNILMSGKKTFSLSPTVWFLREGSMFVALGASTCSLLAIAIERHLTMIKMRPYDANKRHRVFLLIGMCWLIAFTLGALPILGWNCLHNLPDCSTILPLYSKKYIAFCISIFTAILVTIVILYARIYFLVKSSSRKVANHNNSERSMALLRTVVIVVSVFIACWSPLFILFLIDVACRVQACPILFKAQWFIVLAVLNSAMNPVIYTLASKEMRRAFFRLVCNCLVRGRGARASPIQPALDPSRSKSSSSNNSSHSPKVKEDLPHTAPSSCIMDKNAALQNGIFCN

Usually EC50 stands for the midpoint of the concentration-response curve. Take `c1ccc(N2CCN(Cc3cn4cccnc4n3)CC2)cc1`: the EC50 was above 40 µM.

As for `CCCCN(CC)Cc1ccc(CNC(=O)Nc2ccc(OC)cc2OC)o1` [1-[[5-[[butyl(ethyl)amino]methyl]furan-2-yl]methyl]-3-(2,4-dimethoxyphenyl)urea], the EC50 was above 40 µM.

`CC1CN(c2nnnn2-c2ccccc2)CC(C)O1` (stereo not given) [SMR000109556] registered a half-maximal effective concentration (EC50) above 40 µM.

On to `COc1ccc2[nH]cc(CCN(C)C)c2c1` [3-(2-DIMETHYLAMINOETHYL)-5-METHOXYINDOLE], for which the EC50 was above 40 µM.

With `Cc1cccc(N2CCN(C(=O)Cc3c(C(=O)O)[nH]c4ccc(Cl)cc34)CC2)c1C` [5-chloranyl-3-[2-[4-(2,3-dimethylphenyl)piperazin-1-yl]-2-oxidanylidene-ethyl]-1H-indole-2-carboxylic acid], the concentration for a half-maximal effect (EC50) is above 40 µM.

`CCc1nn(C(C)C(=O)NCCN2CCN(c3cccc(C)c3C)CC2)c(=O)c2cc3occc3n12` (stereo not given) [SMR000029605] had an EC50 above 40 µM.

Consider `CC[C@@H](CO)NC(=O)[C@@H]1C=C2c3cccc4c3c(cn4C)C[C@H]2N(C)C1` [METHYSERGIDE MALEATE], for which the EC50 was above 40 µM.

Compound `Cc1c(CN2CCN(c3cccc(C(F)(F)F)c3)CC2)c(=O)n(-c2ccccc2)n1C` gave an EC50 above 40 µM.

In turn, `CCOC(=O)C1C(C)=NC(=O)NC1c1ccc(OCC(=O)Nc2ccccc2)c(OC)c1` (stereo not given) [SMR000093032] yielded an EC50 above 40 µM.

`Cc1cc(C(C)(C)C)c(O)c(C)c1CC1=NCCN1` [SMR000059324] came in with an EC50 above 40 µM.

As for `Cn1c(-c2ccccc2)cnc1SCc1nc(O)c2ccccc2n1` [MLS000077265], the EC50 is above 40 µM.

As for `CN1CCN2c3ccccc3Cc3ccccc3C2C1` (stereo not given) [MIANSERIN HYDROCHLORIDE], the EC50 was above 40 µM.

In turn, `Cc1cccc(NC(=O)C2CCCN(C(=O)Nc3ccccc3)C2)c1C` (stereo not given) [SMR000006943] came in with an EC50 above 40 µM.

In turn, `CCc1ccc(NC(=O)Cn2c(SC)nc3ccccc32)cc1` [N-(4-ethylphenyl)-2-[2-(methylthio)-1-benzimidazolyl]acetamide] displayed an EC50 above 40 µM.

`COc1ccc(CN2CCN(c3ccccc3F)CC2)c(OC)c1`: the EC50 was above 40 µM.

Compound `CN1CCN(C(N=O)c2nonc2N)CC1` (stereo not given) registered an EC50 above 40 µM.

`Cc1[nH]c2c(Cl)cccc2c1CCN`: the EC50 is above 40 µM.

For the compound `CN(C)CCCn1c(NC(=O)C2CCCCC2)nc2ccccc21`, the EC50 was above 40 µM.

The compound `CCN1CC=C(c2c[nH]c3ccccc23)CC1` [MLS000093713] showed an EC50 above 40 µM.

Turning to `CCOC(=O)c1oc2ccccc2c1NC(=O)c1cc(OC)cc(OC)c1` [ethyl 3-[(3,5-dimethoxybenzoyl)amino]-1-benzofuran-2-carboxylate], the EC50 is above 40 µM.

In the case of `C[N+]1=C2CCCCCN2C(O)(c2ccccc2)C1` (stereo not given) [MLS000048587], the EC50 is above 40 µM.

In turn, `CSc1nc2ccc(NC(=O)C3CCCO3)cc2s1` (stereo not given) [N-[2-(methylthio)-1,3-benzothiazol-6-yl]-2-oxolanecarboxamide] yielded an EC50 above 40 µM.

`O=C(O)C1CCCCC1C(=O)NCCc1c[nH]c2ccccc12` (stereo not given) [2-[2-(1H-indol-3-yl)ethylcarbamoyl]cyclohexane-1-carboxylic acid] yielded a concentration for a half-maximal effect (EC50) above 40 µM.

Regarding `CCOC(=O)C1CCN(C(c2cccnc2)c2c(NC(=O)c3ccco3)sc(C)c2C)CC1` (stereo not given) [SMR000019649], the EC50 was above 40 µM.

`CN1CC=C(c2c[nH]c3ccccc23)CC1` [MLS000120058] came in with an EC50 above 40 µM.

Compound `Cn1cc(C(Cc2ccccc2)N=O)c2ccccc21` (stereo not given) [1-(1-methyl-3-indolyl)-2-phenylethanone oxime] had a concentration giving a half-maximal response (EC50) above 40 µM.

`O=C(COC(=O)CCC1CCCC1)Nc1ccc(Cl)cn1` [[2-[(5-chloropyridin-2-yl)amino]-2-oxoethyl] 3-cyclopentylpropanoate] gave an EC50 above 40 µM.

The compound `COc1cc(CN2CCN(c3cccc(C)c3C)CC2)cc(OC)c1O` [4-[[4-(2,3-dimethylphenyl)piperazin-1-yl]methyl]-2,6-dimethoxy-phenol] displayed an EC50 above 40 µM.

For `O=C(NCc1ccccc1)NC1(C(=O)N2CCCC2)CCCCC1` [1-Benzyl-3-[1-(pyrrolidine-1-carbonyl)-cyclohexyl]-urea], the 50% effective concentration (EC50) was above 40 µM.

Consider `Cc1cc(C(C)(C)C)cc(C)c1CC1=NCCN1` [SMR000058526], for which the EC50 is above 40 µM.

In turn, `COC(=O)CC(=O)Cc1nc(N)nc(Nc2ccc(C)c(C)c2)n1` [4-[4-amino-6-(3,4-dimethylanilino)-1,3,5-triazin-2-yl]-3-oxobutanoic acid methyl ester] gave an EC50 above 40 µM.

`c1ccc2sc(C3CCCNC3)nc2c1` (stereo not given) [SMR000067014] gave a half-maximal effective concentration (EC50) above 40 µM.

For `COc1ccc(N(CC(=O)NC2CCCC2)C(=O)Cn2nnc(-c3ccc(C)cc3)n2)cc1OC` [N-[2-(cyclopentylamino)-2-oxoethyl]-N-(3,4-dimethoxyphenyl)-2-[5-(4-methylphenyl)tetrazol-2-yl]acetamide], the EC50 is above 40 µM.

The compound `CNCCc1c[nH]c2ccccc12` [N-OMEGA-METHYLTRYPTAMINE] had an EC50 above 40 µM.

`CN(C)CCOC(=O)c1cn(Cc2ccccc2)c2ccccc12` [2-(dimethylamino)ethyl 1-(phenylmethyl)indole-3-carboxylate;hydrochloride]: the EC50 is above 40 µM.

Consider `O=C(Nc1cccc(-c2cn3ccsc3n2)c1)c1ccccc1` [N-[3-(6-imidazo[2,1-b]thiazolyl)phenyl]benzamide], for which the EC50 was above 40 µM.

The compound `CC(CCc1ccccc1)NC(=O)CSc1nc(N)cc(N)n1` (stereo not given) [MLS000254508] showed an EC50 above 40 µM.

For `CC(=O)Nc1ccc(S(=O)(=O)N(C)c2ccc(O)cc2)cc1` [MLS000081936], the EC50 was above 40 µM.

Take `C1=C(c2c[nH]c3ccccc23)CCNC1`: the concentration giving a half-maximal response (EC50) was above 40 µM.

`CCOC(=O)c1cc2ccc(OC(=O)c3ccco3)cc2oc1=O` [ethyl 7-(2-furoyloxy)-2-oxo-2H-chromene-3-carboxylate] registered an EC50 of 10.5 µM.

Turning to `CCOC(=O)C1CCN(C(=O)Cc2c(C(=O)O)n(C)c3ccccc23)CC1` [3-{2-[4-(ethoxycarbonyl)piperidin-1-yl]-2-oxoethyl}-1-methyl-1H-indole-2-carboxylic acid], the concentration for a half-maximal effect (EC50) is above 40 µM.

`NCCc1c[nH]c2ccc(F)cc12` [MLS000047815] yielded an EC50 above 40 µM.

Take `Cc1noc(C)c1COc1ccc(C(=O)OC(C)C(=O)Nc2ccc(N3CCOCC3)cc2)cc1` (stereo not given) [[1-[(4-morpholin-4-ylphenyl)amino]-1-oxidanylidene-propan-2-yl] 4-[(3,5-dimethyl-1,2-oxazol-4-yl)methoxy]benzoate]: the EC50 was above 40 µM.

Regarding `CCCCN(C)CCCNC(=O)Cn1c(=O)sc2ccccc21` [N-{3-[butyl(methyl)amino]propyl}-2-(2-oxo-1,3-benzothiazol-3(2H)-yl)acetamide], the EC50 was above 40 µM.

Regarding `CCOC(=O)c1c(C)nc(-c2ccccc2)nc1NC(=O)CC` [ethyl 4-methyl-2-phenyl-6-(propionylamino)pyrimidine-5-carboxylate], the concentration for a half-maximal effect (EC50) is above 40 µM.

For the compound `Cc1[nH]c2c(C(F)(F)F)cccc2c1CCN` [2-[2-methyl-7-(trifluoromethyl)-1H-indol-3-yl]ethanamine;hydrochloride], the EC50 is above 40 µM.

Regarding `CCN(CC)c1nc(N2CCOCC2)c(C#N)c2c1CN(C)CC2` [1-(diethylamino)-7-methyl-3-morpholin-4-yl-6,8-dihydro-5H-2,7-naphthyridine-4-carbonitrile], the EC50 is above 40 µM.

Compound `Cc1[nH]c2ccccc2c1C1=CCNCC1` [MLS000045807] returned an EC50 above 40 µM.

For `O=S(=O)(c1cccc(Cl)c1)N1CCCC1` [MLS000063405], the 50% effective concentration (EC50) is above 40 µM.

The compound `CCCCc1ccc2[nH]cc(CCN)c2c1` yielded a concentration giving a half-maximal response (EC50) above 40 µM.
